Source: patent EP0714662A1, “ANTIALLERGIC AGENT” (MEIJI MILK PRODUCTS COMPANY LIMITED, priority 1993, dated 1995)
Ends that are not written are not given here.

Experiments:
[1] = test system: serum IgE from 15 patients suffering from mite rhinallergosis; assay: Enzyme antibody assay: binding of solid phase Der p II overlapping peptides to patients' serum IgE; parameters: species or system human; details: serum from each of 15 patients
Method: The complete primary structure of the amino acid sequence of a Der p II protein was determined after cDNA was isolated therefrom by Chua et al. (Int. Arch. Allergy Appl. Immunol. 91: 118-123, 1990). Based on the amino acid sequence, peptides were synthesized on a solid phase using a multipin system (manufactured by Chiron) and coupling reagents, Fmoc-amino acid and DCC (dicyclohexyl carbodiimide) (Geysen, H.M. et al., Proc. Natl. Acad. Sci. USA. 81:3998-4002, 1984). Sixty-one kinds of peptides were synthesized, the first peptide comprising the first through ninth amino acids of the N-terminal of Der p II, the second peptide comprising the third through eleventh amino acids of the N-terminal, and the third through 61st peptides being prepared in an analogous manner.
The RAST (radio-allergosorbent test, Pharmacia) values as determined using antigens from two mite species, Dermatophagoides pteronyssinus (Der p) and Dermatophagoides farina (D f), were class 4. Each of the above-mentioned 61 synthesized peptides and 100 µl of each patient's serum were placed in a 96-well plate and reacted overnight at room temperature. Synthesized peptides in a solid phase were washed three times to remove the patient's serum using a washing solution of 0.05% Tween 20/0.15 M NaCl/Tris-HCl (pH 7.5). 100 µl of galactosidase-labelled anti-human IgE antibodies (Pharmacia) were diluted to 40-fold using a 1:9 diluted Block-ace (product of Dainippon Seiyaku K.K.). The diluted solution was added to a 96-well plate, each synthesized solid phase peptide was also added, and reaction, was allowed to proceed overnight at room temperature. The synthesized solid phase peptide was washed with the same washing solution five times. Thereafter, to a 96-well black plate (manufactured by Dainippon Seiyaku K.K.), were added 200 µl of a solution of 0.1 mM 4-methylumbelliferyl-β-D-galactopyranoside in 0.1% bovine serum albumin/0.1 M NaCl/1 mM MgCl₂/0.1% sodium azide/10 mM phosphate buffer (pH 7.0). Subsequently, the synthesized solid phase peptide was added and reacted for 2 hours at 37°C. After completion of reaction, 100 µl of a reaction terminating solution (0.1 M glycin/NaOH, pH 10.3) were added to each well, and absorbance was measured using a fluorospectrophotometer for 96-well plates (Manufactured by Flow). This reaction was studied for each of 15 patients.

[2] = test system: basophils artificially sensitized in a passive manner with serum IgEs from patients suffering from rhinallergosis caused by mites; assay: Passive histamine release (inhibition) test with passively sensitized basophils; format: cell-based, human
Method: To 20 ml of heparinized venous blood, 5 ml of a 4.5% dextran solution were added and the mixture was allowed to stand for 30 to 60 minutes at room temperature. The upper leukocyte layer was extracted and subjected to a repetitive centrifugal operation. The leukocytes were then washed with PBS. To the leuokocytes in a precipitated fraction, 20 ml of a lactate buffer (pH 3.9, 4°C) were added and thoroughly mixed. After cooling the mixture on ice for 2 to 5 minutes, the pH was returned to neutral by adding PBS (25 ml). By this operation, IgEs on basophils were released. The leukocytes were washed well with PBS and suspended in 0.5% human albumin/PBS. 100 µl of cell suspension (approximately 2 x 10⁵ cells/well) were added to a V-bottom 96-well plate. Fifty µl of a pooled serum of patients suffering from rhinallergosis caused by mites were further added, and reaction was allowed to proceed for 1 hour at 37°C. This procedure caused serum IgEs from the patients suffering from rhinallergosis caused by mites to be bound to IgE receptors. Thus, basophils artificially sensitized in a passive manner with serum IgEs from patients suffering from rhinallergosis caused by mites can be obtained (Pruzansky J.J. et al., J. Immunol., 131; 1949-1953, 1983). The plate was centrifuged to remove 100 µl of a supernatant. 100 µl of a 0.5% human albumin/PBS were added to the residue and centrifuged again. The centrifugal operation was repeated twice, and the cells were then washed. 100 µl of a Der p II peptide (55-63) having a predetermined concentration of PBS were combined with 50 µl of an MBE (10 µg/50 µl) or PBS, and allowed to react for 30 minutes at 37°C. The plate was then centrifuged to collect 100 µl of a supernatant. The amount of histamine was determined using a histamine assay kit manufactured by Eiken Kagaku K.K.
Essentially, a histamine release test is performed to determine the amount of histamine released when an antigen solution (an allergen solution) is added to a sample of whole blood (fresh blood) from an allergic patient. […]

[3] = test system: pooled patients' serum IgE; assay: Binding inhibition assay: pooled patients' serum IgE to mite body extract (MBE); parameters: species or system human; details: peptide concentration of about 5 µg/ml - 5 mg/ml; pooled serum of 10 patients
Method: A crude mite body extract (MBE) was prepared from a mite, Dermatophagoides pteronyssinus (Der p), by homogenizing Der p mite bodies in 0.15 M NaCl/phosphate buffer (pH 7.3, PBS) using a Teflon homogenizer and centrifugally separating to collect the supernatant. A pooled serum IgE from patients was prepared by blending sera from 10 patients suffering from rhinallergosis caused by mites (RAST values with respect to Dermat ophagoides pteronyssinus: 3 or more). The peptide (Der p II 55-63) was synthesized by a Fmoc method using a peptide synthesizer pssm 8 manufactured by Shimadzu Corporation. The results of the synthesis were confirmed by an amino acid analysis and by an analysis of the primary structure. The MBE was added to each well of a 96-well black plate (Dainippon Seiyaku k.K.) so that the amount of protein contained was 1 µg/well (100 µl). The plate was allowed to stand overnight at 4°C. […] After completion of reaction, 100 µl of a reaction terminating liquid (0.1 M glycin/NaOH, pH 10.3) were added to each well, and absorbance was measured using a fluorospectrophotometer for 96-well plates (Manufactured by Flow). The absorbance in a control which was prepared by adding a PBS solution in place of the peptide was taken as 100%.

## KASIDGLEV [synthesized peptide No. 28]
[1]
  binding reactions with IgE antibodies: exhibited binding reactions with IgE antibodies
[2]; low peptide concentrations
  suppression of histamine release caused by MBE: could not suppress histamine release
[2]; peptide concentration 7.55 mg/ml, MBE 10 µg/50 µl
  suppression of histamine release caused by MBE: about 90%
[2]; substance added alone to passively sensitized basophils
  histamine release: histamine was scarcely released
[3]
  inhibition of binding of pooled patients' serum IgE to MBE: 20%
